Test results taken from ChEMBL document CHEMBL5727953, “Sulfonylcycloalkyl carboxamide compounds” (2020).

Target: Transient receptor potential cation channel subfamily A member 1 (Homo sapiens, UniProt O75762)
Experiment: Inhibition Assay: IC50 values (effective concentration) of compounds on the human and rat TRPA1 channels were determined using a FLIPR Tetra instrument. CHO cells expressing TRPA1 were plated into 384-well plates, incubated overnight at 37 C, and loaded with BD calcium indicator dye for 1 hr at 37° C. followed by 15 minutes. at room temperature. The assay buffer was Hank's Balanced Salt Solution (HBSS) containing 20 mM HEPES (pH readjusted to 7.4) along with 0.02% BSA.Following dye load and plate cool down, compounds were added to the cells using FLIPR Tetra. Plates were then incubated with compounds for 20 minutes at room temperature prior to adding agonist. Following this incubation, ˜EC80 concentration of cinnamaldehyde (75 uM for human TRPA1 and 45 uM for rat TRPA1) was added to active the channels and block of cinnamaldehyde induced calcium influx was measured.

Sequence of Transient receptor potential cation channel subfamily A member 1 (O75762 whole entry): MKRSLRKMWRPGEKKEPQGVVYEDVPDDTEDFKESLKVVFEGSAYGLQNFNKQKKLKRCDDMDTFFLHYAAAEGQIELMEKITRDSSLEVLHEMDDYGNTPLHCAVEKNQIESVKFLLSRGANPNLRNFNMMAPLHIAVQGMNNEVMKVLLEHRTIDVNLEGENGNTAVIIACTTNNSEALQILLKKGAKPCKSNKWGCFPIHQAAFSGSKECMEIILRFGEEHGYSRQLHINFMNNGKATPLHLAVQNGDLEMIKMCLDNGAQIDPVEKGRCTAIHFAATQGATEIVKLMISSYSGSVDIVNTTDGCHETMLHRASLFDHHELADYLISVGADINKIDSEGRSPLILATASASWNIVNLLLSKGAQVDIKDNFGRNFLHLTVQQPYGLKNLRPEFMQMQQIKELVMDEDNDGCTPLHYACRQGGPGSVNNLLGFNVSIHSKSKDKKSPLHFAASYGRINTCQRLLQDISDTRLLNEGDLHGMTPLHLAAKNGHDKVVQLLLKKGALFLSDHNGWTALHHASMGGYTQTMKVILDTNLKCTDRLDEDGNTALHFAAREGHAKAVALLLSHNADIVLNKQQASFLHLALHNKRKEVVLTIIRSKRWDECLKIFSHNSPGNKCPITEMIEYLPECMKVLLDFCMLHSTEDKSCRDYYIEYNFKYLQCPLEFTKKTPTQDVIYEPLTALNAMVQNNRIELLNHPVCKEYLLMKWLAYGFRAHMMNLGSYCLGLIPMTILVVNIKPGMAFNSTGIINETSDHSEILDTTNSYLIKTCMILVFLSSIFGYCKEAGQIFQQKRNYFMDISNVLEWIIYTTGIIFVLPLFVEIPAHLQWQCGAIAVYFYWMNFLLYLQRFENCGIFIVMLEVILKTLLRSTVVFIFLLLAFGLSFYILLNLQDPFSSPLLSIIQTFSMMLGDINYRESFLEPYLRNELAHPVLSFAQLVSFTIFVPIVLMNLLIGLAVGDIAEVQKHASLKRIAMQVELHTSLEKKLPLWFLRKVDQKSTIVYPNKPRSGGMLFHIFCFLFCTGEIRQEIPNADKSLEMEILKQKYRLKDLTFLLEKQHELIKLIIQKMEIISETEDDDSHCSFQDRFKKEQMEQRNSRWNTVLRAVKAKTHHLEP

Row | IC50 [nM] | Compound
1 | 246 | COc1nn(-c2cnc(C(F)(F)F)nc2)cc1CC(=O)N[C@@H]1CC[C@@H]1S(=O)(=O)c1ccc(F)cc1
2 | 200 | O=C(Cn1cc(-c2ccc(C(F)(F)F)cc2)cn1)N[C@@H]1CC[C@@H]1S(=O)(=O)c1ccc(F)cc1
